Results: US20220111028A1, “Combination Of A STING Agonist And A Complex Comprising A Cell Penetrating Peptide, A Cargo And A TLR Peptide Agonist” (priority 2020, published 2022)

Experiments:
TC-1 tumor [1] = assay: TC-1 tumor model: intra-tumoral CD4 T cell responses; type: in vivo, C57BL/6 mice
Description: (§1) C57BL/6 mice were implanted s.c. with 1×10^5 TC-1 tumor cells in the back and mice were stratified according to tumor size on day 6 tumor implantation. Alternatively, C57BL/6J mice were injected i.v. with 1×10^5 B16-OVA cells. Mice were vaccinated two times (at day 6 and 13 post tumor implantation) by s.c. injection of 10 nmoles of vaccine at the tail base. At the same time of vaccination, mice received 25 μg of STING agonist administered via 2×50 μl s.c. injections in each side of the low back. Alternatively, at the same time of vaccination, mice received 10 μg of STING agonist 2 administered via 2×100 μl s.c. injections in each side of the low back.
(§2) TC-1 tumors were harvested at day 20 post implantation and tumor-infiltrating leucocytes (TIL) were purified using Miltenyi tumor dissociation kit following manufacturer instruction. Briefly, tumor tissues were cut into small pieces, and resuspended in DMEM medium containing tumor dissociating enzymes (Miltenyi). Tumors were digested on a Gentle MACS with heating system (Miltenyi) using solid tumor program. Enzymatic digestion was stopped by adding cold PBS 0.5% BSA solution and keeping cells on ice. Digested tumors were passed through a 70 μm to eliminate remaining undigested tissue. CD45+ cells were purified using CD45 TIL microbeads (Miltenyi) following manufacturer protocol. […]
In view thereof, intra-tumoral CD4 T cells were monitored next. […]

[2] = system: HPV-E7-specific CD8 T cells, splenic CD8 and CD4 T cells; assay: Immunogenicity in tumor-free mice: multimer staining and flow cytometry of blood and splenocytes; type: in vivo, C57BL/6 mice
Description: (§3) Peripheral blood and spleen mononuclear cell suspensions from mice were isolated using Ficoll-Paque gradient (GE Healthcare) before flow cytometry analysis, ex vivo stimulation or TCR avidity assay.
TILs, LILs or splenocytes were numerated and 1×10^5 or 2×10^6 cells were plated per condition, respectively. Cells were incubated with HPV-CD4, HPV-CD8, OVA-CD8 or OVA-CD4 epitope peptide, with PMA/ionomycin as a positive control or without any stimulant as a negative control, in presence of Golgi stop (BD biosciences) and anti-CD107a for 6 hours. […]
The following antibodies were used: CD45 (30-F11), CD11b (M1/70), KLRG1 (2F1), CD103 (M290), NKg2a (20d5), Ly6C (AL-21), Ly6G (1A8), PD-L1 (MIH5), I-A/I-E (M5/114), CD11c (HL3), PDCA1 (927), CD64 (X54-5/7.1), B220 (RA3-6B2), CD24 (M1/69), CD4 (GK1.5), CD25 (3C7), CD3 (500A2), NKp46 (29A1.4), TNF-α (MP6-XT22), IFN-γ (XMG1.2), H2-Kb (AF6-88.5) and H2-db (28-14-8) were from BD Biosciences; Tim3 (RMT3-23), PD-1 (29F.1A12), CD38 (90), Gr-1 (RB6-8C5), CD206 (C068C2), CD68 (FA-11) were from BioLegend; Ki67 (solA15), FoxP3 (FJK-16s), T-bet (4B10), GATA-3 (TWAJ) and RORγt (AFKJS-9) were from ThermoFisher Scientific; Granzyme B (REA226) was from Miltenyi; CD8 (KT15) was from MBL. […] Cells were analyzed using an Attune NxT flow cytometer (ThermoFisher Scientific) Kaluza (Beckman Coulter) software. […]

TC-1 tumor [3] = assay: TC-1 tumor model: tumor microenvironment composition by FACS; type: in vivo, C57BL/6 mice; settings: systemic administration
Description: as §1, §2

TC-1 tumor [4] = assay: TC-1 tumor model: antigen-specific CD8 T cell responses; type: in vivo, C57BL/6 mice
Description: as §1
TC-1 tumors were harvested at day 20 post implantation and tumor-infiltrating leucocytes (TIL) were purified using Miltenyi tumor dissociation kit following manufacturer instruction. Briefly, tumor tissues were cut into small pieces, and resuspended in DMEM medium containing tumor dissociating enzymes (Miltenyi). Tumors were digested on a Gentle MACS with heating system (Miltenyi) using solid tumor program. Enzymatic digestion was stopped by adding cold PBS 0.5% BSA solution and keeping cells on ice. Digested tumors were passed through a 70 μm to eliminate remaining undigested tissue. CD45+ cells were purified using CD45 TIL microbeads (Miltenyi) following manufacturer protocol. Purified CD45+ cells were used for flow cytometry staining or ex vivo T cells stimulation.
as §3
TILs, LILs or splenocytes were numerated and 1×10^5 or 2×10^6 cells were plated per condition, respectively. […]
The following antibodies were used: CD45 (30-F11), CD11b (M1/70), KLRG1 (2F1), CD103 (M290), NKg2a (20d5), Ly6C (AL-21), Ly6G (1A8), PD-L1 (MIH5), I-A/I-E (M5/114), CD11c (HL3), PDCA1 (927), CD64 (X54-5/7.1), B220 (RA3-6B2), CD24 (M1/69), CD4 (GK1.5), CD25 (3C7), CD3 (500A2), NKp46 (29A1.4), TNF-α (MP6-XT22), IFN-γ (XMG1.2), H2-Kb (AF6-88.5) and H2-db (28-14-8) were from BD Biosciences; Tim3 (RMT3-23), PD-1 (29F.1A12), CD38 (90), Gr-1 (RB6-8C5), CD206 (C068C2), CD68 (FA-11) were from BioLegend; Ki67 (solA15), FoxP3 (FJK-16s), T-bet (4B10), GATA-3 (TWAJ) and RORγt (AFKJS-9) were from ThermoFisher Scientific; Granzyme B (REA226) was from Miltenyi; CD8 (KT15) was from MBL. […] Cells were analyzed using an Attune NxT flow cytometer (ThermoFisher Scientific) Kaluza (Beckman Coulter) software.
To this end, 10^5 TC-1 tumor cells were implanted on the back of C57BL/6 mice. […] One week after the last treatment, mice were sacrificed, tumor harvested, and CD8 T cells presence and phenotype was analyzed by FACS staining.

TC-1 tumor [5] = assay: TC-1 tumor model: tumor growth and survival (STINGa); type: in vivo, C57BL/6 mice; settings: TC-1 model, treated twice at one-week interval
Description: as §1
(§4) Tumor size was measured with a caliper and mice were euthanized when tumor reached a volume of 1000 mm^3. Tumor volume was calculated with the following formula:
(§5) V=length×length×width×Pi/6
10^5 TC-1 cells were implanted on the back of C57BL/6 mice. When tumors were visible, mice were treated twice at one-week interval as described above in therapeutic settings of the TC-1 tumor model with (i) the complex comprising a cell penetrating peptide, at least one antigen or antigenic epitope, and a TLR peptide agonist (Z13Mad25Anaxa); (ii) the STING agonist; or (iii) a combination of both.

TC-1 tumor [6] = assay: TC-1 tumor model: intra-tumoral expression of PD-L1, MHC-I and MHC-II; type: in vivo, C57BL/6 mice
Description: as §1
TC-1 tumors were harvested at day 20 post implantation and tumor-infiltrating leucocytes (TIL) were purified using Miltenyi tumor dissociation kit following manufacturer instruction. Briefly, tumor tissues were cut into small pieces, and resuspended in DMEM medium containing tumor dissociating enzymes (Miltenyi). Tumors were digested on a Gentle MACS with heating system (Miltenyi) using solid tumor program. […]
Furthermore, down-regulation of MHC-I expression on tumor cells is one of the main mechanism of immune evasion. Therefore, the intra-tumoral expression of PD-L1 and MHC-I as well as MHC-II was also monitored in the TC-1 tumor model as described above.

B16-OVA tumor = assay: B16-OVA pulmonary metastases tumor model; type: in vivo, C57BL/6 mice; settings: B16-OVA i.v., day 20
Description: as §1
B16-OVA tumor bearing mice were sacrificed at day 20, lungs were perfused with a saline solution and the number of lung metastasis was counted.
B16-OVA tumor bearing mice were perfused with a saline solution to eliminate blood from the lungs before their collection. Lung-infiltrating leucocytes (LILs) were purified using mouse tumor dissociation kit from Miltenyi, following manufacturer instruction. […]
Briefly, 10^5 B16-OVA cells were injected intravenously into C57BL/6 mice. […] At day 20 (10 days after the last vaccination), lungs were perfused to eliminate blood, the number of pulmonary metastasis was counted, and lung infiltrating lymphocytes (LILs) were analyzed.

IFN-α = assay: Quantification of serum interferon-α (ELISA) in tumor-free mice; type: in vivo, C57BL/6 mice; settings: 4 and 24 hours post first vaccination, s.c.
Description: Blood was collected from mouse tail vein and serum was isolated by centrifugation using Starstedt tubes. The concentration of IFN-α cytokine was measured using commercial ELISA kits according to the manufacturer's recommendations (PBL Assay Science).
In order to evaluate the immunogenicity of the combination, tumor-free C57BL/6 mice were vaccinated twice at 2 weeks interval (at day 0 and 14) by s.c. injection of 10 nmoles of Z13Mad25Anaxa (an exemplified a complex comprising a cell penetrating peptide, at least one antigen or antigenic epitope, and a TLR peptide agonist, which contains human papilloma virus (HPV)-derived CD4 and CD8 epitopes. At about the same time of vaccination, mice received 25 μg of STING agonist ADU-S100 administered via 2×50 μl s.c. injections in each side of the low back. Serum was collected 4 and 24 hours after the first vaccination and IFN-α concentration was measured by ELISA. Whole blood was collected at day 21 and used for antigen-specific CD8 T cells measurement by multimer flow cytometry staining. At the same time, spleens were harvested and splenocytes used for ex vivo stimulation and intracellular cytokine production was analyzed by flow cytometry. Alternatively, splenocytes were used for TCR avidity assay.

MC38-CEA tumor = MC38-CEA tumor model: CEA-specific CD8 T cells by multimer staining; type: in vivo, C57BL/6J mice; settings: multimer staining one week after second vaccination, MC38-CEA tumor-bearing mice
Description: Alternatively, female C57BL/6J mice were implanted with 5×10^5 MC38-CEA tumor cells subcutaneously on the back of the mouse and vaccinated twice at the base of the tail (at day 6 and 13 post tumor implantation) by s.c. injection of 10 nmoles of vaccine, 25 μg of STINGa (ADU-S100) or a combination of the two.
Female C57BL/6J mice were implanted with 5*10^5 MC38-CEA tumor cells subcutaneously on the back of the mouse. At day 6 and day 13 post tumor implantation, mice were vaccinated with 10 nmol of ATP128, 25 μg of a STING agonist (ADU-S100) or a combination of the two. Both the ATP128 vaccine and the STING agonist were injected subcutaneously at the base of the tail. One week after the second vaccination, mouse blood was collected from the tail vein and the frequency and the total number of CEA-specific CD8 T cells was analyzed by flow cytometry using a custom designed multimer.

TC-1 tumor [7] = assay: TC-1 tumor model: tumor growth, survival and circulating CD8 T cells (STINGa 2); type: in vivo, C57BL/6 mice; settings: TC-1 model, complex day 6 and 13, STINGa 2 s.c. days 6, 10, 13 and 17
Description: as §1, §4, §5
Similarly as described above, 10^5 TC-1 cells were implanted on the back of C57BL/6 mice and assigned to distinct groups (control (no treatment); complex comprising a cell penetrating peptide, at least one antigen or antigenic epitope, and a TLR peptide agonist (Z13Mad25Anaxa); STING agonist STINGa 2; and a combination thereof). […]

For `Nc1ncnc2c1ncn2[C@@H]1O[C@@H]2CO[P@@](=O)([S][Na])O[C@@H]3[C@H](O)[C@@H](CO[P@@](=O)([S][Na])O[C@H]2[C@H]1O)O[C@H]3n1cnc2c(N)ncnc21` [STINGa, reference compound], the “Tumor infiltration by CD4 T cells” value (TC-1 tumor [1]) was “no effect on intra-tumoral CD4 T cells recruitment”, the “Proportion of splenic CD8 T cells” value [2] was “higher proportion of splenic CD8 T cells” and the “Cytokine secretion by CD8 T cells after ex vivo PMA/Ionomycin restimulation” value ([2]; splenocytes) was “increased cytokine secretion”. For the same compound, the “Composition of TME” value (TC-1 tumor [3]) was “does not affect the composition of TME”, the “HPV-specific proportion of tumor-infiltrating CD8 T cells (in words)” value (TC-1 tumor [4]; TC-1 tumor) was “did not modulate” and the “Expression of exhaustion markers PD-1 and Tim-3 by tumor-infiltrating CD8 T cells” value (TC-1 tumor [4]; TC-1 tumor, flow cytometry) was “expressed only PD-1 or no exhaustion marker at all”. The “CD8 T cells tumor infiltration” value (TC-1 tumor [4]; TC-1 tumor, one week after last treatment) was “did not modulate”, the “Circulating HPV-specific CD8 T cells (frequency and number)” value (TC-1 tumor [4]; blood, one week after last treatment, TC-1 tumor-bearing mice) was “no effect” and the “Tumor development / tumor growth” value (TC-1 tumor [5]) was “only a small effect on tumor growth”. The “Intra-tumoral immunogenicity (modulation of TME)” value (TC-1 tumor [6]) was “no effect was observed”, the “Number of metastatic nodules per lung” value (B16-OVA tumor) was “no effect” and the “Serum IFN-α level (systemic type I interferon response)” value (IFN-α) was “high IFN-α serum levels peaking 4 hours post injection and decreasing already 24 hours later”.
“ATP128: Vaccine construct (SEQ ID NO: 54) containing CEA, survivin and ASCL2 epitopes, cell penetrating peptide and TLR peptide agonist” was tested, and the “CEA-specific CD8 T cell response” value (MC38-CEA tumor) was “elicits CEA-specific CD8 T cells”.
With `Nc1ncnc2c1ncn2[C@@H]1O[C@@H]2COP(=O)(S)O[C@@H]3[C@H](O)[C@@H](COP(=O)(S)O[C@H]2[C@H]1F)O[C@H]3n1cnc2c(=O)[nH]ncc21` (stereo partly drawn) [STINGa 2] the Survival (TC-1 tumor [7]) was “only provided a slight improvement” and the Tumor growth (TC-1 tumor [7]) was “only provided a slight improvement”.
